The target of this assay is T1, delF508-CFTR (Homo sapiens, UniProt P13569, DEL508-508).
T1 construct: expressed in transfected cells
In words: Measurement of delF508-CFTR-HRP surface expression in CFBE41o- cells. Conditions: for EC50: HRP-tagged delF508-CFTR surface expression, CFBE41o- cells, 24 h with compound, 10-point curve, highest concentration 10 μM; for Emax: CFBE41o-, read-out: DelF508-CFTR-HRP Amax %. In kind it is cell-based. From the text: Measurement of deIF508-CFTR-HRP Surface Expression in CFBE41o-Cells
This assay quantifies the cell surface expressions of the mutant CFTR channel using an extracellular HRP tag.
A cellular assay was developed to measure surface expression of horseradish peroxidase (HRP) tagged delF508-CFTR in the human bronchial epithelial immortalized CFBE41o-cell line (Phuan, P. W., et al, (2014) Molecular Pharmacology 86:42-51). Specifically, the HRP sequence was inserted into the fourth extracellular loop of delF508-CFTR and stably expressed in CFBE41o-cells. Cells were seeded in 384 well plate at a density of 5000 cells/well and incubated at 37° C. for 12 to 24 hours in medium (Gibco MEM #11095, 10% FBS, 10 mM HEPES, […], 200 μg/mL G418, 3 μg/mL Puromycin). The delF508-CFTR-HRP expression was induced with 500 ng/mL doxycycline (Sigma D-9891, dissolved in H2O and sterile filtered) in medium and the cells were incubated at 37° C. for 48 h. Old medium was removed and fresh medium was added containing 500 ng/mL doxycycline and unknown test compound at required test concentration in DMSO, not exceeding 0.5% final DMSO concentration. The highest concentration tested was 10 μM with a 10-point concentration response curve using a 3-fold dilution. After addition of compounds, the cells were incubated for 24 h at 37° C. On the final day, cells were washed four times in PBS containing 1 mM MgCl2 and 0.1 mM CaCl2. HRP-Substrate (SuperSignal ELISA Pico, Fisher #37069) 20 μl/well was added and the luminescence signal was determined (Viewlux, Perkin Elmer). Light was emitted upon addition of exogenous HRP-Substrate only when delF508-CFTR-HRP reached the cell surface and the HRP tag was accessible to the HRP-Substrate (note: HRP-Substrate cannot cross the lipid bilayer to reach delF508-CFTR-HRP misfolded within the cell).
The median activity for the lowest concentration of the compounds on each assay plate was calculated and this value was used to normalize the signal for each well on the respective plate. Three replicates at each concentrations for every compound were run to determine one EC50. The median value was determined and used to calculate compound activities as described below. Effective half maximal values (EC50) were calculated for each compound by performing logistic regression on measured dose-response data points using the equation: […]
where “Y” is the observed activity, “Bottom” is the lowest observed value, “Top” is the highest observed value, and the “Hill coefficient” gives the largest absolute value of the slope. The curve fitting is carried out by a curve fitting program implemented at GNF using Matlab (Mathworks).
The dose response curves also were used to calculate Fold Change (FC) using the equation: […]
Compound efficacy relative to the reference compound 3-(6-(1-(2,2-difluorobenzo[d][1,3]dioxol-5-yl)cyclopropane-1-carboxamido)-3-methylpyridin-2-yl)benzoic acid was determined using the following formula: […]

Where [1] appears, read: efficacy relative to reference compound 3-(6-(1-(2,2-difluorobenzo[d][1,3]dioxol-5-yl)cyclopropane-1-carboxamido)-3-methylpyridin-2-yl)benzoic acid.

T1 sequence (P13569 with tags, fused parts or gaps DEL508-508): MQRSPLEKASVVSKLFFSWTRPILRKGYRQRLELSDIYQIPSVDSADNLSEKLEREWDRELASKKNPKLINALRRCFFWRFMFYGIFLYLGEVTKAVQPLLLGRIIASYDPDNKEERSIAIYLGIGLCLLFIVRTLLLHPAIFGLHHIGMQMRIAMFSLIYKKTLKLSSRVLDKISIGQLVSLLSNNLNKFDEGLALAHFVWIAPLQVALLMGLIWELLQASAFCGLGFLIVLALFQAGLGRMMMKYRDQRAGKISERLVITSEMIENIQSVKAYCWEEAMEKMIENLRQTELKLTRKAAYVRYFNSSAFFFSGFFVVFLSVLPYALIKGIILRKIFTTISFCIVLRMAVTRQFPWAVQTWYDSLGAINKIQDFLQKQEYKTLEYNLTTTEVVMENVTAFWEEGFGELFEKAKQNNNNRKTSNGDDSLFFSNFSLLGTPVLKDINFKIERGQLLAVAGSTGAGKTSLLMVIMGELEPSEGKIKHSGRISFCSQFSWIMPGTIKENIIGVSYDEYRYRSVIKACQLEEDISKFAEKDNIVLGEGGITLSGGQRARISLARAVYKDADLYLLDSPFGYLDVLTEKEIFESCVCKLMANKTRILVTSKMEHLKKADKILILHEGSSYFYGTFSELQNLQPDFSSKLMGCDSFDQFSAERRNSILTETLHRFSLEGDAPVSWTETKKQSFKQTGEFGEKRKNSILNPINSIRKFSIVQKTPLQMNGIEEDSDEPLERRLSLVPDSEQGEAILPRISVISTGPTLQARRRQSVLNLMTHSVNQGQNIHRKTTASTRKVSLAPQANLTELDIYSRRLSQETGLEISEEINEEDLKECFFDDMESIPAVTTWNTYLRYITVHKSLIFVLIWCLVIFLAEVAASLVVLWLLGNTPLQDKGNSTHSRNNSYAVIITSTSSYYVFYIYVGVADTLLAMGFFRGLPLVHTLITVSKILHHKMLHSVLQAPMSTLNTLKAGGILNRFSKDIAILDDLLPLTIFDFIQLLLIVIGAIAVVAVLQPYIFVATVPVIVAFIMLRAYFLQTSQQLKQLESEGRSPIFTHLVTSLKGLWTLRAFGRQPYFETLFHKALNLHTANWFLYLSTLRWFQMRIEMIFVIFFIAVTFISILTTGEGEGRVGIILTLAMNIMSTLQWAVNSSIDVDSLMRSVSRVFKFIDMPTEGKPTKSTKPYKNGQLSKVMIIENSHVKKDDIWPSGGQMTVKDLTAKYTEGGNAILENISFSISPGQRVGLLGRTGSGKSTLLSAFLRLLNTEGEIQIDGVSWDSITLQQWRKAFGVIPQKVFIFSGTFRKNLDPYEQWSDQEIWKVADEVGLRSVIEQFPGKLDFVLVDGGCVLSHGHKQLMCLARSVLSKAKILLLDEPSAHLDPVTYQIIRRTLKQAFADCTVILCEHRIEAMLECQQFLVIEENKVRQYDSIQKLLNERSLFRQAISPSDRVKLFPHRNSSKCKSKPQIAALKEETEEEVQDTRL

The term EC50 denotes the midpoint of the concentration-response curve. On to `O=S1(=O)Nc2ccc(C(F)(F)F)c(n2)-c2ccccc2CCCCCCN(CCCCO)c2cccc1n2` [Compound 16, 6-(4-hydroxybutyl)-2^3-(trifluoromethyl)-4-thia-3,6-diaza-2,5(2,6)-dipyridina-1(1,2)-benzenacyclododecaphane 4,4-dioxide], for which the EC50 was found to be 0.303 µM. In the case of `CC1(C)O[C@@H](CO)[C@H](CN2CCCCCc3ccccc3-c3nc(ccc3C(F)(F)F)NS(=O)(=O)c3cccc2n3)O1` [Compound 34, 6-(((4S,5S)-5-(hydroxymethyl)-2,2-dimethyl-1,3-dioxolan-4-yl)methyl)-2^3-(trifluoromethyl)-4-thia-3,6-diaza-2,5(2,6)-dipyridina-1(1,2)-benzenacycloundecaphane 4,4-dioxide], the EC50 worked out at 0.281 µM. In addition, under setting [1], the Emax was 448%. The corresponding values for `O=S1(=O)Nc2ccc(C(F)(F)F)c(n2)-c2cccnc2NCCCCCNc2cccc1n2` [Compound 6, 2^3-(trifluoromethyl)-4-thia-3,6,12-triaza-1(3,2),2,5(2,6)-tripyridinacyclododecaphane 4,4-dioxide] are 1.68 µM and 248%.

`O=C(O)CCOCCN1CCCCCc2ccccc2-c2nc(ccc2C(F)(F)F)NS(=O)(=O)c2cccc1n2` [Compound 64, 3-(2-(4,4-dioxido-2^3-(trifluoromethyl)-4-thia-3,6-diaza-2,5(2,6)-dipyridina-1(1,2)-benzenacycloundecaphane-6-yl)ethoxy)propanoic acid]: the EC50 turned out to be 0.913 µM. For the same compound, under setting [1], the Emax was 862%. In the same order, the values of `O=S1(=O)Nc2ccc(C(F)(F)F)c(n2)-c2cccnc2NCCCNc2cccc1n2` [Compound 10, 2^3-(trifluoromethyl)-4-thia-3,6,10-triaza-1(3,2),2,5(2,6)-tripyridinacyclodecaphane 4,4-dioxide] are 2.8 µM and 29%. `O=C(O)CCCCCN1CCCCCc2ccccc2-c2nc(ccc2Cl)NS(=O)(=O)c2cccc1n2` [Compound 82, 6-(2^3-chloro-4,4-dioxido-4-thia-3,6-diaza-2,5(2,6)-dipyridina-1(1,2)-benzenacycloundecaphane-6-yl)hexanoic acid]: the concentration for a half-maximal effect (EC50) was 0.844 µM. Besides, the Emax under setting [1] came to 652%.

For `NCCN1CCCCc2ccccc2-c2nc(ccc2C(F)(F)F)NS(=O)(=O)c2cccc1n2` [Compound 130, 6-(2-aminoethyl)-2^3-(trifluoromethyl)-4-thia-3,6-diaza-2,5(2,6)-dipyridina-1(1,2)-benzenacyclodecaphane 4,4-dioxide], the EC50 stood at 2.44 µM. Further, the Emax under setting [1] is 188%. On to `O=S1(=O)Nc2ccc(C(F)(F)F)c(n2)-c2cccnc2NCCCCNc2cccc1n2` [Compound 5, 2^3-(trifluoromethyl)-4-thia-3,6,11-triaza-1(3,2),2,5(2,6)-tripyridinacycloundecaphane 4,4-dioxide], for which the EC50 is 1.62 µM. Moreover, the Emax under setting [1] was 159%. In the same order, the values of `O=S1(=O)Nc2ccc(C(F)(F)F)c(n2)-c2ccccc2CCCCCCNc2cccc1n2` [Compound 36, 2^3-(trifluoromethyl)-4-thia-3,6-diaza-2,5(2,6)-dipyridina-1(1,2)-benzenacyclododecaphane 4,4-dioxide] are 0.253 µM and 583%.

Take `O=C(O)CCCN1CCCOCc2ccccc2-c2nc(ccc2C(F)(F)F)NS(=O)(=O)c2cccc1n2` [Compound 102, 4-(4,4-dioxido-2^3-(trifluoromethyl)-10-oxa-4-thia-3,6-diaza-2,5(2,6)-dipyridina-1(1,2)-benzenacycloundecaphane-6-yl)butanoic acid]: the EC50 was determined as 2.3 µM. On to `O=S1(=O)Nc2ccc(C(F)(F)F)c(n2)-c2ccccc2CCCCCCCCCN(CCCO)c2cccc1n2` [Compound 45, 6-(3-hydroxypropyl)-2^3-(trifluoromethyl)-4-thia-3,6-diaza-2,5(2,6)-dipyridina-1(1,2)-benzenacyclopentadecaphane 4,4-dioxide], for which the EC50 is 0.361 µM. Regarding `O=S1(=O)Nc2ccc(C(F)(F)F)c(n2)-c2ccccc2CCCCNCCNc2cccc1n2` [Compound 131, 2^3-(trifluoromethyl)-4-thia-3,6,9-triaza-2,5(2,6)-dipyridina-1(1,2)-benzenacyclotridecaphane 4,4-dioxide], the EC50 was determined as 3.9 µM. The Emax under setting [1] turned out to be 30.7%. In the same order, the values of `O=S1(=O)Nc2ccc(C(F)(F)F)c(n2)-c2ccccc2CCCCN(CCO)c2cccc1n2` [Compound 116, 6-(2-hydroxyethyl)-2^3-(trifluoromethyl)-4-thia-3,6-diaza-2,5(2,6)-dipyridina-1(1,2)-benzenacyclodecaphane 4,4-dioxide] are 0.445 µM and 737%. With `O=S1(=O)Nc2ccc(C(F)(F)F)c(n2)-c2ccccc2CCCCCCCN(CCCCO)c2cccc1n2` [Compound 40, 6-(4-hydroxybutyl)-2^3-(trifluoromethyl)-4-thia-3,6-diaza-2,5(2,6)-dipyridina-1(1,2)-benzenacyclotridecaphane 4,4-dioxide], the EC50 worked out at 0.22 µM. As for `O=S1(=O)Nc2ccc(C(F)(F)F)c(n2)-c2cccnc2OCCCCCNc2cccc1n2` [Compound 108, 2^3-(trifluoromethyl)-1^2-oxa-4-thia-3,6-diaza-1(3,2),2,5(2,6)-tripyridinacyclododecaphane 4,4-dioxide], the EC50 stood at 1.27 µM. The Emax under setting [1] is 443%. On to “6-(3-hydroxypropyl)-2^3-(trifluoromethyl)-9-oxa-4-thia-3,6-diaza-2,5(2,6)-dipyridina-1(1,2)-benzenacyclododecaphane 4,4-dioxide [Compound 30]”, for which the EC50 came to 1.48 µM. For the same compound, the “DelF508-CFTR-HRP Amax %” value under setting [1] worked out at 1656.8%. For `O=S1(=O)Nc2ccc(C(F)(F)F)c(n2)-c2ccccc2CCCCCN(CCN2CCNCC2)c2cccc1n2` [Compound 121, 6-(2-(piperazin-1-yl)ethyl)-2^3-(trifluoromethyl)-4-thia-3,6-diaza-2,5(2,6)-dipyridina-1(1,2)-benzenacycloundecaphane 4,4-dioxide], the EC50 came out at 0.495 µM. Further, the Emax under setting [1] worked out at 348%. In the same order, the values of `COC(=O)CNCCN1CCCCCc2ccccc2-c2nc(ccc2C(F)(F)F)NS(=O)(=O)c2cccc1n2` [Compound 126, methyl (2-(4,4-dioxido-2^3-(trifluoromethyl)-4-thia-3,6-diaza-2,5(2,6)-dipyridina-1(1,2)-benzenacycloundecaphane-6-yl)ethyl)glycinate] are 0.831 µM and 488%. Regarding `O=S1(=O)Nc2ccc(C(F)(F)F)c(n2)-c2ccccc2CCC(O)CNc2cccc1n2` (stereo not drawn) [Compound 33, 8-hydroxy-2^3-(trifluoromethyl)-4-thia-3,6-diaza-2,5(2,6)-dipyridina-1(1,2)-benzenacyclodecaphane 4,4-dioxide], the EC50 amounted to 3.3 µM. Besides, the Emax under setting [1] was 119%. Turning to `O=S1(=O)Nc2ccc(C(F)(F)F)c(n2)-c2ccccc2CCCCCCCN(CCCO)c2cccc1n2` [Compound 39, 6-(3-hydroxypropyl)-2^3-(trifluoromethyl)-4-thia-3,6-diaza-2,5(2,6)-dipyridina-1(1,2)-benzenacyclotridecaphane 4,4-dioxide], the EC50 came out at 0.233 µM. As for `O=S1(=O)Nc2ccc(Cl)c(n2)-c2ccccc2CCCOc2cccc1n2` [Compound 114, 2^3-chloro-6-oxa-4-thia-3-aza-2,5(2,6)-dipyridina-1(1,2)-benzenacyclononaphane 4,4-dioxide], the EC50 turned out to be 3.31 µM. Moreover, under setting [1], the Emax was 97.1%. In the same order, the values of `O=S1(=O)Nc2ccc(C(F)(F)F)c(n2)-c2ccccc2CCCCNc2cccc1n2` [Compound 115, 2^3-(trifluoromethyl)-4-thia-3,6-diaza-2,5(2,6)-dipyridina-1(1,2)-benzenacyclodecaphane 4,4-dioxide] are 0.456 µM and 430%.

The record behind these values is US20220071971A1, “MACROCYCLIC COMPOUNDS AND THEIR USE IN THE TREATMENT OF DISEASE” (NOVARTIS AG, priority 2018, published 2022).
